Results as given in patent US11022556B2, “Tetrazolium compound for detecting microorganisms, reagent for detecting microorganisms and method for detecting microorganisms” (JNC CORPORATION, priority 2010, dated 2021).

Legend:
general viable cells = test: comparative test for detecting microorganisms on sheet media for detecting general viable cells; type: cell-based; details: food samples (meat, precut vegetables, delicatessens); sheet medium with 0.03 g/m^3 reagent; 35° C.; 24 hours incubation vs 48 hours for 2,3,5-triphenyltetrazolium chloride
Method: Next, the results obtained by a comparative test for detecting microorganisms using the chromogenic reagent of Example 1 and the chromogenic reagent of Comparative Example are described below. The comparative test was performed as follows. First, sheet media for detecting general viable cells containing as the chromogenic reagent 0.03 g/m^3 each of tetrazolium compound A of Example 1 and 2,3,5-triphenyltetrazolium chloride of Comparative Example, respectively, were prepared. The sheet media for general viable cells were the same except that the chromogenic reagents were different.
Then, 10 g of either one of meat, precut vegetables, delicatessens, etc. was put into a sterilized bag and 100 ml of sterile saline was added thereto. The mixture was homogenized with a stomacher. […]
The sheet medium of Example 1 for detecting general viable cells containing the chromogenic reagent was incubated for 24 hours and the sheet medium for detecting general viable cells containing the chromogenic reagent for comparison was incubated for 48 hours, respectively, both at 35° C. The viable cell counts were compared between the count of viable cells visually detected by the chromogenic reagent of Example 1 and the count of viable cells detected by the chromogenic reagent of Comparative Example. […]

[1] = absorption wavelength and colour of the formazan dye formed from the tetrazolium compound; type: physicochemical; details: formazan dye produced by reduction of the tetrazolium compound

Structure (SMILES)	number of colonies (viable cell count) visually detected, compared with the chromogenic reagent of Comparative Example (general viable cells)	colour developed by the formazan dye [1]	peak of absorption wavelength of the formazan dye formed [1]
COc1ccccc1-n1nc(-c2ccccc2)n[n+]1-c1ccc([N+](=O)[O-])cc1.[Cl-] [tetrazolium compound A, 2-(2-Methoxyphenyl)-3-(4-nitrophenyl)-5-phenyltetrazolium chloride]	almost the same number or more of colonies were detected	blue to bluish purple	approximately 410 nm
COc1cc([N+](=O)[O-])ccc1-n1nc(-c2ccccc2)n[n+]1-c1ccc([N+](=O)[O-])cc1.[Cl-] [tetrazolium compound B, 2-(2-Methoxy-4-nitrophenyl)-3-(4-nitrophenyl)-5-phenyltetrazolium chloride]	the colonies were detected in the same number as in or more than	blue to bluish purple	approximately 410 nm
